# Values of other authors, collected in patent US7786119B2, “Drug conjugates of ion channel modulating compounds” (Cardiome Pharma Corp., priority 2004, dated 2010).
# Tests used:
# [1] = optically pure d-sotalol; SWORD study
Structure (SMILES),increased mortality compared to placebo [1],risk of ventricular proarrhythmia (estimated),patients requiring cardioversion for refractory ventricular arrhythmias (in vivo)
CC(C)NC[C@@H](O)c1ccc(NS(C)(=O)=O)cc1 [d-sotalol],65%,,
CCCCCCCN(CC)CCCC(O)c1ccc(NS(C)(=O)=O)cc1 (stereo not drawn) [ibutilide],,~4.4%,~1.7%
